Target: T1, full length G2019 human LRRK2 (Homo sapiens, UniProt Q5S007, R50H)
T1 construct: made in house; host or cells: HEK293 6E cells transduced with BacMam virus (virus generated in Sf9 cells)
Assay: Full length G2019 human LRRK2 inhibition mass spectrometry assay
Format: biochemical
Settings: LRRKtide to phospho-LRRKtide conversion, RapidFire MS, 2 mM ATP
Method: a. Full Length G2019 Human LRRK2 Inhibition Mass Spectrometry Assay
This assay for Leucine Rich Repeat Kinase 2 (LRRK2) inhibition is based on the direct measurement of the peptide ‘LRRKtide’ (LRRKtide: RLGRDKYKT*LRQIRQ and “*” refers to the site of phosphorylation.) and phosphorylated ‘LRRKtide’ using a high throughput Rapid Fire mass spectrometry assay. Inhibitors are compounds that reduce the conversion of LRRKtide to phospho-LRRKtide.
• 1) Compounds were dissolved in 100% DMSO at a concentration of 10 mM, and 11-point dose response curves generated using a 1 in 4 serial dilution in DMSO. 100 nL of this dilution series was then added to a 384 well, v bottom polypropylene plate (Greiner 781280), excluding columns 6 and 18. 100 nL of DMSO were added to column 6 to serve as the high control, while column 18 served as the low control containing assay buffer in place of the LRRK2 protein. Assay dilution gave a top final assay concentration of test compound of […] • 2) 5 μL of ‘enzyme solution’ containing 2× final assay concentration of purified recombinant Full length Flag-LRRK2 in assay buffer (50 mM Hepes, pH 7.2, 10 mM MgCl2, 150 mM NaCl, 5% glycerol, 0.0025% Triton X-100 and 1 mM DTT) were added to all wells using a Multidrop Combi dispenser (ThermoFisher Scientifiec), giving a final assay concentration of 25 nM LRRK2 enzyme (final concentration may vary depending on specific activity of different enzyme batches). • 3) 5 μL of substrate solution containing 50 μM LRRKtide peptide substrate and […] was added to all wells of the plate using a Multidrop Combi dispenser giving a final assay concentration of 25 μM LRRKtide peptide and 2 mM ATP. Test plates were then incubated for 1 hour at room temperature. (Incubation may vary depending on rate and linearity of reaction with different enzyme batches). • 4) 50 μl of 1% formic acid in laboratory grade water was added to all wells to quench the reaction, and plates were heat-sealed prior to centrifugation at 1348×g for 10 minutes. Test plates were then analysed on an Agilent RapidFire High Throughput solid phase extraction system coupled to AB Sciex API 4000 triple quadropole mass spectrometer with the following setting:
• Sip Height=2 mm, Aspirate=500 ms, Load time=3000 ms, Elution time=3000 ms, Requilibration=500 ms. • Flow rates: pump 1=1.5 mL/min, pump 2 1.25 mL/min pump 3=0.8 mL/min
Mass Spectrometer Settings: • LRRKtide Detection settings: Q1 mass 644.8 Da, Q3 mass 638.8, declustering potential 76 volts, collision energy 37 volts, CXP 34 volts. • Phospho-LRRKtide Detection settings: Q1 mass 671.4 Da, Q3 mass 638.8, Declustering potential 76 volts, Collision energy 37 volts, CXP 34 volts. • A C4 cartridge was used and running buffers were: A (aqueous) 0.1% formic acid in water B (organic) 0.1% formic acid, 80% acetonitrile, 20% water. • Collision gas: 12, Curtain gas: 25, Ion Source gas (1): 60, Ion Source gas (2): 60, Ion Spray Voltage: 5500, Temperature: 600, Interface Heater: ON. • Resolution Q1: low, Resolution Q3: low. • 5) Data were analysed using ActivityBase software (IDBS). A percent conversion from LRRKtide to Phospho-LRRKtide was calculated using the following formula:
% conversion=(Phospho-LRRKtide product peak area/(Phospho-LRRKtide product peak area+LRRKtide substrate peak area))*100 • A logistic 4 parameter curve fit was applied, using the following formula,
[formula] • Where x is the concentration of test sample, y is inhibition (%), a is the minimum, b is the Hill slope, c is the IC50 and d is the maximum. From this, the pIC50 was derived (−log IC50).

T1 sequence (Q5S007 with tags, fused parts or gaps R50H): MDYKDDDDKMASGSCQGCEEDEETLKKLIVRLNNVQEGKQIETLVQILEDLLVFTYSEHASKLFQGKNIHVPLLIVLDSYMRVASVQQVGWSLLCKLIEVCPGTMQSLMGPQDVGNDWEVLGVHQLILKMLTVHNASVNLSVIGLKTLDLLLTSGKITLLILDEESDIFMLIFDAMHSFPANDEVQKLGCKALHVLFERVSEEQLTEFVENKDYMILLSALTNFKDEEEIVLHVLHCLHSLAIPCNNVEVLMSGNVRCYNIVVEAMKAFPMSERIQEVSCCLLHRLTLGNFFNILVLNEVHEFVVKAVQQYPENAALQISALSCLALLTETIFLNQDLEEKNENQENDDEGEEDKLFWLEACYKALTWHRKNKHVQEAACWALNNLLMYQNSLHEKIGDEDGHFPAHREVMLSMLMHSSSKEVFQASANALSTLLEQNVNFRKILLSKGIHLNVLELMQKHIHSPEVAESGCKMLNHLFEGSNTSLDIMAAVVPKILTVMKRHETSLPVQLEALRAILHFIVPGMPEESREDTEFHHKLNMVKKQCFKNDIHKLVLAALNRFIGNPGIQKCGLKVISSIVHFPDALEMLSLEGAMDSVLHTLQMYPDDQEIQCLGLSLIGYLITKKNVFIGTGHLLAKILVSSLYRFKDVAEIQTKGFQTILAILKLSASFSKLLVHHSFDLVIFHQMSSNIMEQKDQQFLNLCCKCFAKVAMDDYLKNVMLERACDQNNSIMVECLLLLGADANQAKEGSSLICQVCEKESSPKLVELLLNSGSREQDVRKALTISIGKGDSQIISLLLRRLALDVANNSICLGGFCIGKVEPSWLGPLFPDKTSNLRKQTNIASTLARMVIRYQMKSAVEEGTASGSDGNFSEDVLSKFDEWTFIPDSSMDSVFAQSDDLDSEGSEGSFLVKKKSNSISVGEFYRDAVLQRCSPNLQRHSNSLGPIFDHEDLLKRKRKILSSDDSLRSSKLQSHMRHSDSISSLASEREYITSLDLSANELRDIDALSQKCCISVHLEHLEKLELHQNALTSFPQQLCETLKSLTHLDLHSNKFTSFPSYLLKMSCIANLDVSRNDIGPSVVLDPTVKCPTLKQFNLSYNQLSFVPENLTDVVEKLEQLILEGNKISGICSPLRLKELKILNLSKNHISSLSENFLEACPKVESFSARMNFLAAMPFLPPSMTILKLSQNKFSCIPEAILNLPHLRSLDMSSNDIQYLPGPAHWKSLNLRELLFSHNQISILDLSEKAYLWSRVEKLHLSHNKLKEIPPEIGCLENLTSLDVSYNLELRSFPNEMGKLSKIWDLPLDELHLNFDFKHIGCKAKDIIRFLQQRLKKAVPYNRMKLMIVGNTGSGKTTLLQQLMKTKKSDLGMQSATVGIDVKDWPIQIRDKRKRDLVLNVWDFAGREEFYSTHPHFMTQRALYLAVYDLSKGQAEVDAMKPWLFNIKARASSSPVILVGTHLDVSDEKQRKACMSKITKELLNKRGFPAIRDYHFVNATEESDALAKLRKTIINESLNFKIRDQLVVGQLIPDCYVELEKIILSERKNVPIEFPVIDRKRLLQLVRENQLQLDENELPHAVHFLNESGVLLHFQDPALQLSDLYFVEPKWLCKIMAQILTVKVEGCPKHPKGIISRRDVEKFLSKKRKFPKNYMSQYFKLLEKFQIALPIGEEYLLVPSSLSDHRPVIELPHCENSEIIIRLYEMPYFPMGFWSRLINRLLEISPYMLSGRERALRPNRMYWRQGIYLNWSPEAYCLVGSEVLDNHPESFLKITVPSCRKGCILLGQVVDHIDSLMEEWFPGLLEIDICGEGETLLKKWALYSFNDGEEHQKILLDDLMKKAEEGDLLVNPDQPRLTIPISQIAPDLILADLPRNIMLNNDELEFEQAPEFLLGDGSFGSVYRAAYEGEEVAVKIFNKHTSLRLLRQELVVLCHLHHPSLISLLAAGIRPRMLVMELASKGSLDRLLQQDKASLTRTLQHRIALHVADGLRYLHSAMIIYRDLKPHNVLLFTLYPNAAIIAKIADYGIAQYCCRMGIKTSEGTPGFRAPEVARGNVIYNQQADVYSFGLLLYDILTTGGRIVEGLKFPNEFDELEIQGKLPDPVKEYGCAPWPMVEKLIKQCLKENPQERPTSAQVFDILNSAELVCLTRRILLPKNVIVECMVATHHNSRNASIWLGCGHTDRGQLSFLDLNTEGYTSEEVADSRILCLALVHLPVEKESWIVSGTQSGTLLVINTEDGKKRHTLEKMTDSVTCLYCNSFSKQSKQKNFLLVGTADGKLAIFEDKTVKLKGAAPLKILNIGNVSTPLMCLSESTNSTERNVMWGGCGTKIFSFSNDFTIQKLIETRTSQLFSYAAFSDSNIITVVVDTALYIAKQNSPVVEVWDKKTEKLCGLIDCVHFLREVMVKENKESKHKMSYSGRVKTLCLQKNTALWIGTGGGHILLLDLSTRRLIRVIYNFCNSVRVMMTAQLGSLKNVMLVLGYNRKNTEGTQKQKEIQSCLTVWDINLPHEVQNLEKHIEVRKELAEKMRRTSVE

IC50 | SMILES
≤ 100 nM | Cc1c2c(nn1C1CCOC1)OCCCNc1nc(ncc1Cl)N2 (single isomer, unassigned) [E124, 14-chloro-4-methyl-5-(oxolan-3-yl)-8-oxa-2,5,6,12,16,17-hexaazatricyclo[11.3.1.0^3,7]heptadeca-1(16),3,6,13(17), 14-pentaene]
≤ 100 nM | Cc1c2c(nn1C1CCOC1)OCCCNc1nc(ncc1C(F)(F)F)N2 (single isomer, unassigned) [E128, 4-methyl-5-(oxolan-3-yl)-14-(trifluoromethyl)-8-oxa-2,5,6,12,16,17-hexaazatricyclo[11.3.1.0^3,7]heptadeca-1(16),3,6,13(17),14-pentaene]
≤ 100 nM | Cc1c2c(nn1C1CCOCC1)OCC(C)CNc1nc(ncc1Cl)N2 (single isomer, unassigned) [E137, 14-chloro-4,10-dimethyl-5-(oxan-4-yl)-8-oxa-2,5,6,12,16,17-hexaazatricyclo[11.3.1.0^3,7]heptadeca-1(16),3,6,13(17),14-pentaene]
≤ 100 nM | Cc1c2c(nn1C1CCOCC1C)OCCCNc1nc(ncc1Cl)N2 (single isomer, unassigned) [E140, 14-chloro-4-methyl-5-(3-methyloxan-4-yl)-8-oxa-2,5,6,12,16,17-hexaazatricyclo[11.3.1.0^3,7]heptadeca-1(16),3,6,13(17),14-pentaene]
≤ 100 nM | Cc1c2c(nn1C1CCOCC1C)OCCCNc1nc(ncc1Cl)N2 (single isomer, unassigned) [E141, 14-chloro-4-methyl-5-(3-methyloxan-4-yl)-8-oxa-2,5,6,12,16,17-hexaazatricyclo[11.3.1.0^3,7]heptadeca-1(16),3,6,13(17),14-pentaene]
≤ 10000 nM | Cc1c2c(nn1C(C)C1CCOCC1)OCCC(C)Nc1nc(ncc1Cl)N2 (single isomer, unassigned) [E182, 14-Chloro-4,11-dimethyl-5-[1-(oxan-4-yl)ethyl]-8-oxa-2,5,6,12,16,17-hexaazatricyclo[11.3.1.0^3,7]heptadeca-1(16),3,6,13(17),14-pentaene]
≤ 100 nM | Cc1c2c(nn1C(C)C1CCOCC1)OCCC(C)Nc1nc(ncc1Cl)N2 (single isomer, unassigned) [E184, 14-Chloro-4,11-dimethyl-5-[1-(oxan-4-yl)ethyl]-8-oxa-2,5,6,12,16,17-hexaazatricyclo[11.3.1.0^3,7]heptadeca-1(16),3,6,13(17),14-pentaene]
≤ 10000 nM | Cc1c2c(nn1C(C)C1CCOCC1)OCCC(C)Nc1nc(ncc1Cl)N2 (single isomer, unassigned) [E185, 14-Chloro-4,11-dimethyl-5-[1-(oxan-4-yl)ethyl]-8-oxa-2,5,6,12,16,17-hexaazatricyclo[11.3.1.0^3,7]heptadeca-1(16),3,6,13(17),14-pentaene]
≤ 100 nM | Cc1c2c(nn1C(C)C1CCOCC1)OCCCNc1nc(ncc1Cl)N2 (single isomer, unassigned) [E187, 14-Chloro-4-methyl-5-[1-(oxan-4-yl)ethyl]-8-oxa-2,5,6,12,16,17-hexaazatricyclo[11.3.1.0^3,7]heptadeca-1(16), 3,6,13(17),14-pentaene]
≤ 10000 nM | Cc1c2c(nn1C1CCOCC1)OCCC(C(F)(F)F)Nc1nc(ncc1Cl)N2 (single isomer, unassigned) [E193, 14-Chloro-4-methyl-5-(oxan-4-yl)-11-(trifluoromethyl)-8-oxa-2,5,6,12,16,17-hexaazatricyclo[11.3.1.0^3,7] heptadeca-1(16),3,6,13(17),14-pentaene]
≤ 100 nM | Cc1c2c(nn1C1CC(C)OC(C)C1)OCCC(C)Nc1nc(ncc1Cl)N2 (single isomer, unassigned) [E195, 14-Chloro-5-(2,6-dimethyloxan-4-yl)-4,11-dimethyl-8-oxa-2,5,6,12,16,17-hexaazatricyclo[11.3.1.0^3,7] heptadeca-1(16),3,6,13(17),14-pentaene]
≤ 10000 nM | Cc1c2c(nn1C1CC(C)OC(C)C1)OCCC(C)Nc1nc(ncc1Cl)N2 (single isomer, unassigned) [E197, 14-Chloro-5-(2,6-dimethyloxan-4-yl)-4,11-dimethyl-8-oxa-2,5,6,12,16,17-hexaazatricyclo[11.3.1.0^3,7] heptadeca-1(16),3,6,13(17),14-pentaene]
≤ 100 nM | Cc1c2c(nn1C1CCOC(C)C1)OCCCNc1nc(ncc1Cl)N2 (single isomer, unassigned) [E203, 14-Chloro-4-methyl-5-(2-methyloxan-4-yl)-8-oxa-2,5,6,12,16,17-hexaazatricyclo[11.3.1.0^3,7]heptadeca-1(16),3,6,13(17),14-pentaene]

The remaining lines, values behind:

SMILES | IC50
Clc1cnc2nc1NCCCOc1nn(C3CCOC3)c(Cl)c1N2 (single isomer, unassigned) [E146, 4,14-Dichloro-5-(oxolan-3-yl)-8-oxa-2,5,6,12, 16,17-hexaaza tricyclo[11.3.1.0^3,7]heptadeca-1(16),3,6,13(17), 14-pentaene] | ≤ 100 nM
Cc1c2c(nn1C1CCC(N3CCC(F)C3)CC1)OCCCNc1nc(ncc1Cl)N2 (single isomer, unassigned) [E154, 14-Chloro-5-[4-(3-fluoropyrrolidin-1-yl)cyclohexyl]-4-methyl-8-oxa-2,5,6,12,16,17-hexaazatricyclo[11.3.1. 0^3,7]heptadeca-1(16),3,6,13(17),14-pentaene] | ≤ 100 nM
Cc1c2c(nn1C1CCC(N3CCC(F)C3)CC1)OCCCNc1nc(ncc1Cl)N2 (single isomer, unassigned) [E155, 14-Chloro-5-[4-(3-fluoropyrrolidin-1-yl)cyclohexyl]-4-methyl-8-oxa-2,5,6,12,16,17-hexaazatricyclo[11.3.1. 0^3,7]heptadeca-1(16),3,6,13(17),14-pentaene] | ≤ 100 nM
COC1CCCC(n2nc3c(c2C)Nc2ncc(Cl)c(n2)NCCCO3)C1 (single isomer, unassigned) [E180, 14-Chloro-5-(3-methoxycyclohexyl)-4-methyl-8-oxa-2,5,6,12,16,17-hexaazatricyclo[11.3.1.0^3,7]heptadeca-1(16),3,6,13(17),14-pentaene] | ≤ 100 nM
COC1CCCC(n2nc3c(c2C)Nc2ncc(Cl)c(n2)NCCCO3)C1 (single isomer, unassigned) [E181, 14-Chloro-5-(3-methoxycyclohexyl)-4-methyl-8-oxa-2,5,6,12,16,17-hexaazatricyclo[11.3.1.0^3,7]heptadeca-1(16),3,6,13(17),14-pentaene] | 100000 nM
COC1CNc2nc(ncc2Cl)Nc2c(nn(C3CC(C)OC(C)C3)c2C)OC1 (single isomer, unassigned) [E199, 14-Chloro-5-(2,6-dimethyloxan-4-yl)-10-methoxy-4-methyl-8-oxa-2,5,6,12,16,17-hexaazatricyclo[11.3.1.0^3,7] heptadeca-1(16),3,6,13(17),14-pentaene] | ≤ 10000 nM
Cc1c2c(nn1C1CC(C)OC(C)C1)OCCCNc1nc(ncc1Cl)N2 (single isomer, unassigned) [E201, 14-Chloro-5-(2,6-dimethyloxan-4-yl)-4-methyl-8-oxa-2,5,6,12,16,17-hexaazatricyclo[11.3.1.0^3,7]heptadeca-1(16),3,6,13(17),14-pentaene] | ≤ 100 nM
Cc1c2c(nn1CCN1C[C@H]3C[C@@H]1CO3)OCCC(C)Nc1nc(ncc1Cl)N2 (single isomer, unassigned) [E209] | ≤ 10000 nM
Cc1c2c(nn1CCN1C[C@H]3C[C@@H]1CO3)OCCC(C)Nc1nc(ncc1Cl)N2 (single isomer, unassigned) [E210] | ≤ 100 nM
Cc1c2c(nn1CCN1C[C@H]3C[C@@H]1CO3)OCCC(C)Nc1nc(ncc1Cl)N2 (single isomer, unassigned) [E211] | ≤ 10000 nM
